Test results taken from ChEMBL document CHEMBL1121749, “Beta-adrenergic blocking agents. 21. threo-1-(Aryloxy)-3-(alkylamino)butan-2-ols” (J Med Chem, 1981).
The source made the active and inactive calls. The rule behind the calls is not given here.

The compounds below were run against Adrenergic receptor beta (Homo sapiens) (UniProt P08588+P07550+P13945) (assay: Beta adrenoceptor blocking potency by inhibition of 50% of the tachycardia produced by a submaximal dose of the isoproterenol (0.2ug/kg, intravenously).). Conditions: Felis catus.
Assay type: functional

DOSE, inactive:
COc1ccc(CCNC(C)C(O)COc2cccc3ccccc23)cc1OC (centres undefined)
CC(NC(C)(C)C)C(O)COc1cccc2ccccc12 (centres undefined)
CC(NC(C)(C)C)C(O)COc1ccc(CC(N)=O)cc1 (centres undefined)
CC(C)NC(C)C(O)COc1ccc(OCc2ccccc2)cc1 (centres undefined)
CC(NC(C)(C)C)C(O)COc1cccc2sccc12 (centres undefined)
CC(=O)Nc1ccc(OCC(O)C(C)NC(C)(C)C)cc1 (centres undefined)
CCC(=O)Nc1ccc(OCC(O)C(C)NC(C)(C)C)c([N+](=O)[O-])c1 (centres undefined)
CCC(=O)Nc1cccc2c(OCC(O)C(C)NC(C)C)cccc12 (centres undefined)
CC(C)NC(C)C(O)COc1ccccc1-c1nc2ccccc2s1 (centres undefined)
CCC(=O)Nc1cccc2c(OCC(O)C(C)NC(C)(C)C)cccc12 (centres undefined)
CC(C)NC(C)C(O)COc1ccc2ccccc2c1 (centres undefined)
CC(NC(C)(C)C)C(O)COc1ccccc1/C=C/C#N (centres undefined)
Cc1csc2cccc(OCC(O)C(C)NC(C)(C)C)c12 (centres undefined)
CCNC(C)C(O)COc1ccc(CC(N)=O)cc1 (centres undefined)
CC(NC(C)(C)C)C(O)COc1ccccc1C#N (centres undefined)
CCC(=O)Nc1ccc(OCC(O)C(C)NC(C)(C)C)cc1 (centres undefined)
CC(NC(C)(C)C)C(O)COc1ccc(CC(N)=O)cc1F (centres undefined)
CC(C)NC(C)C(O)COc1ccc(CC(N)=O)cc1 (centres undefined)
CC(C)CNC(C)C(O)COc1cccc2ccccc12 (centres undefined)
CC(C)NC(C)C(O)COc1ccc(Cl)c(Cl)c1 (centres undefined)
COc1ccc(CCNC(C)C(O)COc2ccc(CC(N)=O)cc2)cc1OC (centres undefined)
CCOc1cc(CNC(=O)CC)ccc1OCC(O)C(C)NC(C)C (centres undefined)
CC(C)CNC(=O)c1ccc(OCC(O)C(C)NC(C)C)c(Cl)c1 (centres undefined)
CC(=O)Nc1ccc(OCC(O)C(C)N)cc1 (centres undefined)
CC(=O)Nc1ccc(OCC(O)C(C)NC(C)C)cc1 (centres undefined)
C=CCc1cc(CC(N)=O)ccc1OCC(O)C(C)NC(C)(C)C (centres undefined)
CCNC(C)C(O)COc1ccc(NC(C)=O)cc1 (centres undefined)
Cc1ccc(OCC(O)C(C)NC(C)C)cc1 (centres undefined)
CC(=O)Nc1ccc(OCC(O)C(C)NC(C)(C)CO)cc1 (centres undefined)
